What was measured:
sGC α1/β1 heterodimer = sGC α1/β1 heterodimer (Homo sapiens (Human), UniProt Q02108+Q02153); experiment: Cell-based sGC functional assay (CASA assay), cGMP by HTRF; settings: CHO-K1/sGC cells; for Emax: CHO-K1, cGMP production as percentage of maximum of compound A (set to 100%), read-out: % Activation; for EC50: inflection point of cGMP production, 4P fit, read-out: IP
Excerpt: Cell-Based sGC Functional Assay (Cyclic GMP Assay for sGC Activator: CASA Assay)
Soluble guanylate cyclase (sGC) is a heme-containing enzyme that converts GTP to secondary messenger cGMP. Increases in cGMP levels affect several physiological processes including vasorelaxation through multiple downstream pathways. […] Heme-dependent activators (HDAs) preferentially target sGC containing a ferrous heme group. To determine the effect of sGC activators on enzyme activity, the CASA assay was developed to monitor the generation of cGMP in a cell line that stably expresses the heterodimeric sGC protein.
A CHO-K1 cell line stably expressing the sGC α1/β1 heterodimer was generated using a standard transfection protocol. The cDNA's encoding human sGC α1 and β1 were cloned in pIRES hyg and pIRES neo respectively using standard molecular biology techniques. The plasmids pIRES hyg and pIRES neo plasmids were obtained from Clontech. CHO-K1 cells were transfected with plasmids pIREShyg-hsGCα1 and pIRESneo-hsGCβ1 simultaneously using FUGENE reagent. Clones that stably express both subunits were selected with hygromycin and neomycin for ˜2 weeks. The clone chosen for the assay was designated CHO-K1/sGC. CHO-K1/sGC cells were maintained in F-K12 medium containing 10% heat-inactivated Fetal Bovine Serum (FBS), 100 μg/mL penicillin/streptomycin, 0.5 mg/mL hygromycin and 0.25 mg/mL G418. The cells were then cryopreserved in liquid nitrogen. On the day of the assay, the cells were thawed and resuspended in EBSS Assay Buffer (Sigma, E3024) supplemented with 5 mM MgCl2, 10 mM HEPES (4-(2-hydroxyethyl)piperazine-1-ethanesulfonic acid) and 0.05% BSA (bovine serum albumin) and cell density was then adjusted to 2.25×10^5/mL with EAB. IBMX (3-isobutyl-1-methylxanthin, 0.5 mM) was added to inhibit degradation of cGMP. Compounds were diluted from DMSO stock solutions and added to the assay at a final DMSO concentration of 2.5%. Cells were pre-incubated in the presence and absence of 1 μM of Diethylenetriamine/nitric oxide adduct (DETA-NO; Sigma, 17018) for 30 min at 25° C. Compounds were subsequently added and incubated for 1 hr at 37° C. At the end of the incubation period, the reaction was terminated and the cells were lysed with the detection reagents from Cisbio Kits. The level of intracellular cGMP was determined using an HTRF-based assay kit (CisBio, 62GM2PEC), which detects the displacement of a fluorescence labeled cGMP from its specific antibody. The cGMP produced by test compounds was directly compared to the maximum cGMP production (this value was set to equal 100% activation) of the published sGC compound A (Example 1 in WO 2010/065275, published Jun. 10, 2010).
The test compounds' activities were then expressed as a percentage of compound A, the standard in every experiment. This percent activation was calculated either in the presence or absence of DETA-NO which was then plotted. Inflection points (IP) and maximum fold induction was derived using Abase analysis software for 4P fit.

[1] = target: human recombinant sGC enzyme (Homo sapiens (Human), UniProt Q02108+Q02153); experiment: SEC competition binding assay with [3H] Compound B radioligand; settings: displacement of 1.6 nM [3H] Compound B, 24 h at 37° C.
Description: The binding potencies of sGC compounds to the human recombinant sGC enzyme were determined in a Size Exclusion Chromatography (SEC) competition binding assay using [^3H] Compound B as the radioligand. [^3H] Compound B was prepared using a standardardized tritium exchange procedure. The parent (non-labeled) molecule was first iodinated then a Pd-catalyzed iodine to tritium exchange provided the labeled compound.
Method: The binding buffer was composed of 50 mM triethanolamine pH 7.4, 3 mM MgCl2, 0.025% BSA, 2 mM dithiothreitol (DTT), 300 μM DETA/NO and 400 μM GTP. Assays were conducted in 96-well plates in a total volume of 200 μL. Recombinant human sGC protein (40 ng) was incubated with 1.6 nM [^3H] Compound B for 24 h at 37° C. in the presence and absence of various concentrations of sGC testing compounds delivered as DMSO solutions to give a total of 1% organic solvent content. Non-specific binding was defined by competition with 1 μM of Compound B. After the incubation period, the binding mixtures were loaded onto the gel-filtration plate (ThermoFischer Cat. No. 89808) pre-equilibrated with binding buffer and spun at 1000×g for 3 min at 4° C. on a Bench top centrifuge. The collected eluates in White Frame Clear Well Isoplates (Perkin Elmer Cat #6005040) received 100 μl of UltimaGold scintillation cocktail. The sealed plates were shaken vigorously and span, and counted after 6 hs with a Wallac Microbeta TriLux 1450 LSC & Luminescence Counter (Perkin Elmer). Data from competition experiments were analyzed to determine Ki values using one site—fit Ki equation.

Emax (sGC α1/β1 heterodimer) | EC50 (sGC α1/β1 heterodimer) | Ki [1] | Compound
138% | 94 nM | 2.43 nM | CC1(c2ccc(Cl)c(O)c2)C(=O)Nc2nc(-c3cn4ccnc4c(Cc4c(F)cccc4F)n3)nc(N)c21 (stereo not drawn) [Example 90-A, 4-Amino-5-(4-chloro-3-hydroxyphenyl)-2-{8-[(2,6-difluorophenyl)methyl]imidazo[1,2-a]pyrazin-6-yl}-5-methyl-5,7-dihydro-6H-pyrrolo[2,3-d]pyrimidin-6-one]
121% | 313 nM | 3.46 nM | CC1(c2ccc(O)c(F)c2)C(=O)Nc2nc(-c3cn4ccnc4c(CCC4CCCCC4)n3)nc(N)c21 (stereo not drawn) [Example 84-B, 4-Amino-2-(8-(2-cyclohexylethyl)imidazo[1,2-a]pyrazin-6-yl)-5-(3-fluoro-4-hydroxyphenyl)-5-methyl-5,7-dihydro-6H-pyrrolo[2,3-d]pyrimidin-6-one]
99% | 744 nM | 2.63 nM | CC1(c2ccc(Cl)c(O)c2)C(=O)Nc2nc(-c3cn4ncnc4c(CCC(F)(F)C(F)(F)F)n3)nc(N3CCC(C(F)(F)F)CC3)c21 (stereo not drawn) [Example 137-A, 5-(4-Chloro-3-hydroxy-phenyl)-5-methyl-2-(8-(3,3,4,4,4-pentafluoro-butyl)-[1,2,4]triazolo-[1,5-a]pyrazin-6-yl)-4-(4-(trifluoromethyl)-piperidin-1-yl)-5,7-dihydro-6H-pyrrolo-[2,3-d]pyrimidin-6-one]
68% | 349 nM | 3.54 nM | CC1(c2ccc(Cl)c(O)c2)C(=O)Nc2nc(-c3cn4ncnc4c(CCC(F)(F)C(F)(F)F)n3)nc(NCCCC(F)(F)F)c21 (stereo not drawn) [Example 139-A, 5-(4-Chloro-3-hydroxy-phenyl)-5-methyl-2-(8-(3,3,4,4,4-pentafluoro-butyl)-[1,2,4]triazolo-[1,5-a]pyrazin-6-yl)-4-((4,4,4-trifluorobutyl)-amino)-5,7-dihydro-6H-pyrrolo[2,3-d]pyrimidin-6-one]
125% | 1320 nM | 2.22 nM | CC(C)CCc1nc(-c2nc(N)c3c(n2)NC(=O)C3(C)c2ccc(C(F)(F)F)c(O)c2)cn2ccnc12 (stereo not drawn) [Example 64-B, 4-Amino-5-(3-hydroxy-4-(trifluoromethyl)phenyl)-2-(8-isopentylimidazo[1,2-a]pyrazin-6-yl)-5-methyl-5,7-dihydro-6H-pyrrolo[2,3-d]pyrimidin-6-one]
85% | 797 nM | 2.26 nM | CC1(c2ccc(Cl)c(O)c2)C(=O)Nc2nc(-c3cn4ccnc4c(CCC(F)(F)C(F)(F)F)n3)nc(N)c21 (stereo not drawn) [Example 65-A, 4-Amino-5-(4-chloro-3-hydroxyphenyl)-5-methyl-2-(8-(3,3,4,4,4-pentafluorobutyl)imidazo[1,2-a]pyrazin-6-yl)-5,7-dihydro-6H-pyrrolo[2,3-d]pyrimidin-6-one]
104% | 2860 nM | 0.729 nM | CC1(c2cc(O)c(Cl)cn2)C(=O)Nc2nc(-c3cn4ccnc4c(Cc4ccc(F)cc4)n3)nc(N)c21 (stereo not drawn) [Example 92-B, 4-Amino-5-(5-chloro-4-hydroxypyridin-2-yl)-2-{8-[(4-fluorophenyl)methyl]imidazo[1,2-a]pyrazin-6-yl}-5-methyl-5,7-dihydro-6H-pyrrolo[2,3-d]pyrimidin-6-one]
97% | 553 nM | 0.803 nM | Cc1cn2cc(-c3nc(N)c4c(n3)NC(=O)C4(C)c3ccc(Cl)c(O)c3)nc(Cc3cccc(F)c3)c2n1 (stereo not drawn) [Example 99-A, 4-Amino-5-(4-chloro-3-hydroxyphenyl)-2-{8-[(3-fluorophenyl)methyl]-2-methylimidazo[1,2-a]pyrazin-6-yl}-5-methyl-5,7-dihydro-6H-pyrrolo[2,3-d]pyrimidin-6-one]
175% | 70 nM | 0.775 nM | CCCCc1nc(-c2nc(N)c3c(n2)NC(=O)C3(C)c2ccc(Cl)c(O)c2)cn2ncnc12 (stereo not drawn) [Example 50-A, 4-Amino-2-(8-butyl-[1,2,4]triazolo[1,5-a]pyrazin-6-yl)-5-(4-chloro-3-hydroxyphenyl)-5-methyl-5,7-dihydro-6H-pyrrolo[2,3-d]pyrimidin-6-one]
101% | 142 nM | 0.457 nM | CC1(c2ccc(O)cc2)C(=O)Nc2nc(-c3cn4ccnc4c(Cc4ccc(F)cc4)n3)nc(N)c21 (stereo not drawn) [Example 43-B, 4-Amino-2-{8-[(4-fluorophenyl)methyl]imidazo[1,2-a]pyrazin-6-yl}-5-(4-hydroxyphenyl)-5-methyl-5,7-dihydro-6H-pyrrolo[2,3-d]pyrimidin-6-one]
120% | 1570 nM | 0.565 nM | Cc1cc(C2(C)C(=O)Nc3nc(-c4cn5ccnc5c(Cc5cccc(F)c5)n4)nc(N)c32)ccc1O (stereo not drawn) [Example 45-A, 4-Amino-2-{8-[(3-fluorophenyl)methyl]imidazo[1,2-a]pyrazin-6-yl}-5-(4-hydroxy-3-methylphenyl)-5-methyl-5,7-dihydro-6H-pyrrolo[2,3-d]pyrimidin-6-one]
103% | 70 nM | 0.676 nM | CC(C)CCc1nc(-c2nc(N)c3c(n2)NC(=O)C3(C)c2ccc(F)c(O)c2)cn2ccnc12 (stereo not drawn) [Example 47-B, 4-Amino-5-(4-fluoro-3-hydroxyphenyl)-2-(8-isopentylimidazo[1,2-a]pyrazin-6-yl)-5-methyl-5,7-dihydro-6H-pyrrolo[2,3-d]pyrimidin-6-one]
110% | 547 nM | 7.89 nM | CCCCc1nc(-c2nc(N)c3c(n2)NC(=O)C3(C)c2ccc(C(F)(F)F)c(O)c2)cn2ccnc12 (stereo not drawn) [Example 76-B, 4-Amino-2-(8-butylimidazo[1,2-a]pyrazin-6-yl)-5-(3-hydroxy-4-(trifluoromethyl)phenyl)-5-methyl-5,7-dihydro-6H-pyrrolo[2,3-d]pyrimidin-6-one]
116% | 98 nM | 0.153 nM | CC1(c2cc(O)c(Cl)c(F)c2)C(=O)Nc2nc(-c3cn4ccnc4c(CC4CCCCC4)n3)nc(N)c21 (stereo not drawn) [Example 12-B, 4-Amino-5-(4-chloro-3-fluoro-5-hydroxyphenyl)-2-(8-(cyclohexylmethyl)imidazo[1,2-a]pyrazin-6-yl)-5-methyl-5,7-dihydro-6H-pyrrolo[2,3-d]pyrimidin-6-one]
137% | 95 nM | 6.37 nM | CC1(c2ccc(O)c(F)c2)C(=O)Nc2nc(-c3cn4ncnc4c(CCC(F)(F)C(F)(F)F)n3)nc(N)c21 (racemic) [Example 116-B, 4-Amino-5-(3-fluoro-4-hydroxyphenyl)-5-methyl-2-(8-(3,3,4,4,4-pentafluorobutyl)-[1,2,4]triazolo[1,5-a]pyrazin-6-yl)-5,7-dihydro-6H-pyrrolo-[2,3-d]pyrimidin-6-one]
147% | 402 nM | 0.333 nM | CC1(c2ccc(O)c(Cl)c2)C(=O)Nc2nc(-c3cn4ccnc4c(Cc4cccc(F)c4)n3)nc(N)c21 (stereo not drawn) [Example 35-B, 4-Amino-5-(3-chloro-4-hydroxyphenyl)-2-{8-[(3-fluorophenyl)methyl]imidazo[1,2-a]pyrazin-6-yl}-5-methyl-5,7-dihydro-6H-pyrrolo[2,3-d]pyrimidin-6-one]

— patent publication US10780092B2, “Fused pyrazine derivatives useful as soluble guanylate cyclase stimulators” (Merck Sharp & Dohme Corp., priority 2016, dated 2020)
